Assay results from paper PMC9923724, “Half sandwich-type osmium, ruthenium, iridium and rhodium complexes with bidentate glycosyl heterocyclic ligands induce cytostasis in platinum-resistant ovarian cancer cells and bacteriostasis in Gram-positive multiresistant bacteria” (Frontiers in Chemistry, 2023).
Values joined by “and” are separate entries in the source; they are usually repeats but may differ in a detail not shown here. Equal entries are not always repeated.

Assays:
Assay type in all cases: cell-based
[1] = system: Saos osteosarcoma cells; test: SRB assay (48 h) on Saos cells
Experimental: (§1) 3 × 10^3 Capan2 cells, 2 × 10^3 Saos cells and 8 × 10^3 L428 were plated to 96 well plates. Cells were treated with the compounds in the concentrations for 48 h. Then for Capan2 and Saos SRB assay was performed, L428 cells were counted using a Burker chamber. Data is represented as average ± SD, from three biological replicates; individual assays were performed in duplicates. Values were normalized for vehicle treated cells, absorbance for vehicle treated cells equals to 1. Normality was checked using the Shapiro-Wilk test. The Saos Os-7 dataset was normalized using the Box-Cox method, other datasets had normal distribution. Each complex was individually assessed for statistical significance using One-way ANOVA test followed by Dunnett’s post hoc test; all values were compared to the values of the lowest concentration. For better visibility the p values are presented in an excel sheet at https://figshare.com/s/2c942a812caea8869a67. Non-linear regression was performed on the Capan2 and Saos datasets.
Saos cells were maintained in DMEM (4.5 g/L glucose) medium supplemented with 10% fetal calf serum, 2 mM glutamine, 1% penicillin-streptomycin.
(§2) The assay was performed similar to ([Kovács et al., 2019]). Cells were seeded in 96 well plates the day before the assay. Cells were treated with the compounds for 48 h. Cells were fixed with 10% trichloroacetic acid (TCA). Fixed cells were washed in distilled water 3 times followed by staining with SRB (0.4 m/V% dissolved in 1% acetic acid) for 10 min. Stained cells were washed in 1% acetic acid 5 times; acetic acid was removed and cells were left to dry. Protein-bound SRB was released by adding 100 µl 10 mM Tris base. Plates were measured in a plate photometer (Thermo Scientific Multiscan GO spectrophotometer, Waltham, MA, United States) at 540 nm. On each plate wells were designed to contain vehicle-treated cells. In calculations the readings for these wells was considered as 1 and all readings were expressed relative to these values.
(§3) Statistical analysis was performed using 8.0.1 version of Graphpad Prism. Values were tested for normal distribution using the D’Agostino and Pearson normality test. When necessary, values were log normalized or were normalized using the Box-Cox normalization method ([Box and Cox, 1964]) as indicated in the figure captions. Non-linear regression was performed using the built-in “[Inhibitor] vs. response—Variable slope (four parameters), least square fit” utility of Graphpad that yielded IC50 and Hill slope values.

[2] = system: ID8 ovarian cancer cells; test: MTT reduction assay (4 h) on ID8 cells
Experimental: (§4) 3 × 10^3 A2780 cells, 2 × 10^3 ID8 cells and 4 × 10^3 primary fibroblasts were plated to 96 well plates. Cells were treated with the compounds in the concentrations indicated for either 4 h for an MTT assay or for 48 h for an SRB assay. Data is represented as average ± SD, from three biological replicates; individual assays were performed in duplicates. Values were normalized for vehicle treated cells, absorbance for vehicle treated cells equals to 1. Statistical significance was assessed using two-way ANOVA test comparing the free ligand and each complex as a complex-ligand pair. Before the test normality was assessed using the D’Agostino-Pearson test. The ID8 SRB Ir-7+L-7 dataset had lognormal distribution. […] All other datasets had normal distribution. For better visibility the p values are presented in an excel sheet at https://figshare.com/s/2c942a812caea8869a67. Non-linear regression was performed on the A2780 SRB and the ID8 SRB datasets.
(§5) ID8 cells were cultured in high glucose DMEM (4.5 g/L glucose) medium supplemented with 4% fetal calf serum, 2 mM glutamine, 1% penicillin-streptomycin, 1% ITS supplement (I3146).
MTT reduction assay measures the activity of mitochondrial complex I and can be used to detect toxicity ([Virág et al., 1998]; [Henslee et al., 2016]). The assay was performed similar to ([Bakondi et al., 2003]). Briefly, cells were plated in 96 well plates the day before the assay. Cells were treated with the compounds for 4 h, then MTT was added in 0.5 mg/ml final concentration and cells were incubated at 37°C in a cell incubator. Culture media was removed and the reduced MTT dye was dissolved in dimethyl-sulfoxide (DMSO) and plates were measured in a plate photometer (Thermo Scientific Multiscan GO spectrophotometer, Waltham, MA, United States) at 540 nm. On each plate wells were designed to contain untreated/vehicle-treated cells. In calculations the readings for these wells was considered as 1 and all readings were expressed relative to these values.

[3] = system: cisplatin resistant A2780 cells; test: SRB assay (48 h) on cisplatin-resistant A2780 cells; conditions: for IC50 / cisplatin resistant A2780 SRB Max. (maximal inhibition): cisplatin resistant A2780 cells, SRB, 48 h
Experimental: 6 × 10^3 cisplatin-resistant A2780 cells were plated to 96 well plates. Cells were treated with the compounds in the concentrations indicated for either 4 h for an MTT assay or for 48 h for an SRB assay. Data is represented as average ± SD, from three biological replicates; individual assays were performed in duplicates. Values were normalized for vehicle treated cells, absorbance for vehicle treated cells equals to 1. Each compound was assessed individually. Normality was assessed using the Shapiro-Wilk test. […] Statistical significance was assessed using One-way ANOVA test comparing all points to the smallest concentration. For better visibility the p values are presented in an excel sheet at https://figshare.com/s/2c942a812caea8869a67. Non-linear regression was performed on the results of the SRB assay datasets.
Cisplatin resistant cells underwent selection (1 µM cisplatin) once a week for 3 days before plating for any assay.
as §2
Statistical analysis was performed using 8.0.1 version of Graphpad Prism. Values were tested for normal distribution using the D’Agostino and Pearson normality test. When necessary, values were log normalized or were normalized using the Box-Cox normalization method ([Box and Cox, 1964]) as indicated in the figure captions.

[4] = system: L428 Hodgkin lymphoma cells; test: Cell proliferation on L428 cells (counted in Burker chamber); conditions: head says SRB, cells counted using a Burker chamber
Experimental: as §1
Cells were seeded in 96 well plates the day before the assay. Cells were treated with the compounds for […]. Cells were counted using a Burker chamber. On each plate wells were designed to contain untreated cells. In calculations the readings for these wells was considered as 1 and all readings were expressed relative to these values.

[5] = system: ID8 ovarian cancer cells; test: SRB assay (48 h) on ID8 cells
Experimental: as §4, §5, §2, §3

| SMILES | IC50 [1] | SAOS SRB Max. (maximal inhibition) [1] | ID8 MTT Max. (maximal inhibition) [2] | IC50 [3] | cisplatin resistant A2780 SRB Max. (maximal inhibition) [3] | L428 maximal inhibition (cell count) [4] | IC50 [5] | ID8 SRB IC50 [5] | ID8 SRB Max. (maximal inhibition) [5] | fold change of IC50, cisplatin resistant vs cisplatin sensitive A2780 ([3]; SRB assays, resistant / sensitive A2780) |
| --- | --- | --- | --- | --- | --- | --- | --- | --- | --- | --- |
| Cc1ccc(C(C)C)cc1.F[P-](F)(F)(F)(F)F.O=C(OCC1OC(n2cc(-c3ccc4ccccc4n3)nn2)C(OC(=O)c2ccccc2)C(OC(=O)c2ccccc2)C1OC(=O)c1ccccc1)c1ccccc1.[Cl][Ru+] (mixture of isomers) [Ru-7] | 1180 nM | 33.64% | 32.56% | 1180 nM | >90% | 52.73% | 1140 nM | submicromolar or low micromolar | >90% | – |
| Cc1c(C)c(C)[c-](C)c1C.F[P-](F)(F)(F)(F)F.O=C(OCC1OC(n2cc(-c3ccc4ccccc4n3)nn2)C(OC(=O)c2ccccc2)C(OC(=O)c2ccccc2)C1OC(=O)c1ccccc1)c1ccccc1.[Cl][Ir+2] (mixture of isomers) [Ir-7] | 1580 nM | 33% | 19.23% | 1540 nM | >90% | >90% | 799 nM | submicromolar or low micromolar | >90% | – |
| Cc1ccc(C(C)C)cc1.F[P-](F)(F)(F)(F)F.O=C(OCC1OC(n2cc(-c3ccc4ccccc4n3)nn2)C(OC(=O)c2ccccc2)C(OC(=O)c2ccccc2)C1OC(=O)c1ccccc1)c1ccccc1.[Cl][Os+] (mixture of isomers) [Os-7] | 1290 nM | 48.04% | 75% and 74.90% | 476 nM | >90% | >90% | 359 nM | submicromolar or low micromolar | >90% | technically unchanged |
